Test results reported in patent US11339185B2, “Cyclic dinucleotides as anticancer agents” (Bristol-Myers Squibb Company, priority 2018, dated 2022).
Read-outs that look alike come from different tables or passages of the source.

Tests used:
[1] = system: THP1-Dual cells, NF-κB pathway; assay: STING THP1 Reporter Assay, NF-κB pathway (SEAP, QUANTI-Blue); assay type: cell-based; conditions: 10% human plasma, SEAP readout (OD620), 100% activation = 100 μM cGAMP, read-out: THP1 Reporter Assays EC50 (μM) NFkB
From the text: (§1) THP1-Dual™ cells were derived from the human THP-1 monocyte cell line by stable integration of two inducible reporter constructs. To this end, THP1-Dual™ cells allow the simultaneous study of the NF-κB pathway, by monitoring the activity of SEAP, and the IRF pathway by assessing the activity of a secreted luciferase (Lucia). Both reporter proteins are readily measurable in the cell culture supernatant when using QUANTI-Blue™, a SEAP detection reagent, and QUANTI-Luc™, a luciferase detection reagent.
(§2) THP1-Dual™ cells induce the activation of NF-κB in response to STING agonists. They also trigger the IRF pathway upon stimulation with STING agonists, such as cGAMP. Here, the THP-1-Dual cells were used to assess STING binders for function on the cellular level.
(§3) Serial dilutions of compounds in DMSO were added to low volume 384 well plates at 100 nl/well using an ECHO acoustic dispenser (Labcyte, model 550) to achieve final starting concentration of 100 μM in cell suspension. THP-1 Dual™ STING reporter cells (Invivogen, Dual cells cat #THPD-nfis) were added to the plates with compounds at 15,000 cells in 10 μL per well in RPMI media (Gibco, cat #11875) containing 10% human plasma in a low volume 384-well black wall clear bottom tissue culture plate (Corning, cat #3542) for SEAP assay and low volume solid white plate (Corning, cat #3826) for luciferase assay. One column of the plate was reserved for treatment with cGAMP at 100 μM for 100% activation calculation and one column for no treatment (DMSO only) for baseline activation. Plates were then incubated in 37 OC incubator at 5% CO2 for 20 hours.
(§4) In the SEAP assay, 5 μl of 2× QuantiBlue (Invivogen, cat #Rep-qb2) is added to 384 well black plates seeded with THP1 cells and incubated at 37° C. for 2 hours. Plates were read on the Envision (Perkin Elmer) at 620 nm wavelength (OD620). In the luciferase assay, 5 μl of Quantiluc (Invivogen, Rep-qlc2) is added to white 384 well plates seeded with THP1 cells and read at 5 minutes on the Envision (Perkin Elmer) using a luminescence protocol (RLU). For both cell lines, 100% activation was determined by value (RLU) of THP-1 Dual STING cells stimulated with 100 μM cGAMP (Invivogen, cat #TLRL-NACGA23-5).

[2] = system: THP1-Dual cells, IRF pathway (IRF3); assay: STING THP1 Reporter Assay, IRF pathway (secreted Lucia luciferase, QUANTI-Luc); assay type: cell-based; conditions: 10% human plasma, luciferase readout, 100% activation = 100 μM cGAMP, read-out: THP1 Reporter Assays EC50 (μM) IRF3
From the text: as §1, §2, §3, §4

[3] = biological target: T1, STING AQ: His-TVMV-S-hSTING(155-341)-G230A-R293Q (Homo sapiens, UniProt Q86WV6, G230A/H232R/R293Q); assay: STING HTRF binding assay (time resolved FRET competition), STING AQ; conditions: 20 nM His-tagged STING AQ cytoplasmic domain, 40 nM fluorescein-labeled cGAMP analog probe, one hour; read-out: HTRF Binding Assays IC50 (μM) AQ
T1 construct: STING AQ: His-TVMV-S-hSTING(155-341)-G230A-R293Q
T1 sequence (Q86WV6 with tags, fused parts or gaps G230A/H232R/R293Q): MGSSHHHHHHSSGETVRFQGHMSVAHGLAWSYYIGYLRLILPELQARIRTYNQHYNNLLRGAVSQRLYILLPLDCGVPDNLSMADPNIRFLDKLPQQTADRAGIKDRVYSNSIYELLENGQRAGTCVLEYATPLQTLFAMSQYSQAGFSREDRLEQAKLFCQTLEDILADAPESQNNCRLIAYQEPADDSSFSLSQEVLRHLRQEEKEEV
Procedure: (§5) A time resolved FRET-based competition binding assay was used to assess test article binding to STING WT and STING AQ. His-tagged STING cytoplasmic domain (WT or AQ) at a concentration of 20 nM was incubated with 2.5 nM Tb-labeled anti-His antibody, test compound, and fluorescein-labeled cGAMP analog probe (BioLog cat. no. C195) at a concentration of 200 nM (STING WT) or 40 nM (STING AQ) in PBS containing 0.005% Tween-20 and 0.1% BSA for one hour. Fluorescence at 495 nm and 520 nm was measured using an EnVision microplate reader to quantify FRET between Tb-labeled anti-His antibody and fluorescein-labeled probe. Background was defined as the signal obtained in the absence of STING protein, and background subtracted FRET ratios were normalized to the maximum signal obtained in the absence of test compound. These values were converted to a percent inhibition. Percent inhibition was determined for test compounds at 11 concentrations. The IC50, defined as the concentration of competing test compound needed to reduce specific binding of the probe by 50%, was calculated using the 4 parameter logistic equation to fit the data

[4] = biological target: T2, STING WT: His-TVMV-S-hSTING(155-341)-H232R (Homo sapiens, UniProt Q86WV6, H232R); assay: STING HTRF binding assay (time resolved FRET competition), STING WT; conditions: 20 nM His-tagged STING WT cytoplasmic domain, 200 nM fluorescein-labeled cGAMP analog probe, one hour; read-out: HTRF Binding Assays IC50 (μM) WT
T2 construct: STING WT: His-TVMV-S-hSTING(155-341)-H232R
T2 sequence (Q86WV6 with tags, fused parts or gaps H232R): as the sequence (Q86WV6 with tags, fused parts or gaps G230A/H232R/R293Q) above, with A99G, Q162R counted along it
Procedure: as §5

Structure (SMILES)	EC50 ([1]; 20 hours) [µM]	EC50 ([2]; 20 hours) [µM]	IC50 [3] [µM]	IC50 [4] [µM]	EC50 ([1]; Homo sapiens, THP1-Dual, 20 h) [µM]	EC50 ([2]; Homo sapiens, THP1-Dual, 20 h) [µM]
O=P1(S)OC[C@@H]2[C@@H](COP(=O)(S)O[C@H]3[C@@H](F)[C@H](n4cnc5c4ncn4ccnc54)O[C@@H]3CO1)C[C@H]2n1cnc2c(Cl)ncnc21 (single isomer, unassigned) [Example 18-2]	> 100	> 100	35.7	> 100	–	–
O=P1(S)OC[C@@H]2[C@@H](COP(=O)(S)O[C@H]3[C@@H](F)[C@H](n4cnc5c4ncn4ccnc54)O[C@@H]3CO1)C[C@H]2n1cnc2c(Cl)ncnc21 (single isomer, unassigned) [Example 18-3]	> 100	> 100	2.81	> 100	–	–
O=P1(S)OC[C@@H]2[C@@H](COP(=O)(S)O[C@H]3[C@@H](F)[C@H](n4cnc5c4ncn4ccnc54)O[C@@H]3CO1)C[C@H]2n1cnc2c(Cl)ncnc21 (single isomer, unassigned) [Example 18-4]	> 100	> 100	2.18	24.5	–	–
NC(=O)c1cc([C@@H]2O[C@@H]3COP(=O)(S)OC[C@@H]4[C@@H](COP(=O)(S)O[C@@H]2[C@@H]3O)C[C@H]4n2cnc3c(N)ncnc32)ccn1 (single isomer, unassigned) [Example 20-1]	> 100	> 100	> 100	> 100	–	–
NC(=O)c1cc([C@@H]2O[C@@H]3COP(=O)(S)OC[C@@H]4[C@@H](COP(=O)(S)O[C@@H]2[C@@H]3O)C[C@H]4n2cnc3c(N)ncnc32)ccn1 (single isomer, unassigned) [Example 20-2]	> 100	> 100	> 100	> 100	–	–
NC(=O)c1cc([C@@H]2O[C@@H]3COP(=O)(S)OC[C@@H]4[C@@H](COP(=O)(S)O[C@@H]2[C@@H]3O)C[C@H]4n2cnc3c(N)ncnc32)ccn1 (single isomer, unassigned) [Example 20-3]	7.64	5.23	0.01	0.01	–	–
NC(=O)c1cc([C@@H]2O[C@@H]3COP(=O)(S)OC[C@@H]4[C@@H](COP(=O)(S)O[C@@H]2[C@@H]3O)C[C@H]4n2cnc3c(N)ncnc32)ccn1 (single isomer, unassigned) [Example 20-4]	> 100	> 100	35.7	> 100	–	–
Nc1ncnc2c1ncn2[C@@H]1O[C@@H]2COP(=O)(S)OC[C@@H]3[C@@H](COP(=O)(S)O[C@H]2[C@H]1F)C[C@H]3n1cnc2c(=O)n3cnnc3[nH]c21 (single isomer, unassigned) [Example 21-1]	25	5.36	0.004	0.15	–	–
Nc1ncnc2c1ncn2[C@@H]1O[C@@H]2COP(=O)(S)OC[C@@H]3[C@@H](COP(=O)(S)O[C@H]2[C@H]1F)C[C@H]3n1cnc2c(=O)n3cnnc3[nH]c21 (single isomer, unassigned) [Example 21-2]	> 100	> 100	0.2	6.97	–	–
Nc1ncnc2c1ncn2[C@@H]1O[C@@H]2COP(=O)(S)OC[C@@H]3[C@@H](COP(=O)(S)O[C@H]2[C@H]1F)C[C@H]3n1cnc2c(=O)[nH]cnc21 (single isomer, unassigned) [Example 22-1]	–	> 100	0.1	5.68	> 100	–
Nc1ncnc2c1ncn2[C@@H]1O[C@@H]2COP(=O)(S)OC[C@@H]3[C@@H](COP(=O)(S)O[C@H]2[C@H]1F)C[C@H]3n1cnc2c(=O)[nH]cnc21 (single isomer, unassigned) [Example 22-3]	> 100	> 100	0.04	2.71	–	–
Nc1ncnc2c1ncn2[C@@H]1O[C@@H]2COP(=O)(S)OC[C@@H]3[C@@H](COP(=O)(S)O[C@H]2[C@H]1F)C[C@H]3n1cnc2c(=O)[nH]cnc21 (single isomer, unassigned) [Example 22-4]	91.7	13	0.01	0.12	–	–
Nc1ncnc2c1ncn2[C@@H]1O[C@@H]2COP(=O)(S)OC[C@@H]3[C@@H](COP(=O)(S)O[C@H]2[C@H]1F)C[C@H]3n1cnc2c(=O)n3nnnc3[nH]c21 (single isomer, unassigned) [Example 23]	–	–	0.07	4.96	92.2	> 100
Nc1ncnc2c1ncn2[C@@H]1C[C@@H]2COP(=O)(S)O[C@@H]3[C@H](F)[C@@H](COP(=O)(O)OC[C@H]21)O[C@H]3n1cnc2c(=O)n3ccnc3[nH]c21 (stereo partly drawn) [Example 7, 3-[(1S,6S,8R,9R,15R,17R,18R)-8-(6-amino-9H-purin-9-yl)-18-fluoro-3,12-dihydroxy-12-oxo-3-sulfanylidene-2,4,11,13,16-pentaoxa-3λ^5,12λ^5-diphosphatricyclo[13.2.1.0^6,9]octadecan-17-yl]-3H,5H,9H-imidazo[1,2-a]purin-9-one]	–	–	0.002	0.12	11.5	3.01
NC(=O)c1cc([C@@H]2C[C@@H]3COP(=O)(O)O[C@H]4[C@@H](F)[C@H](n5cnc6c(N)ncnc65)O[C@@H]4COP(=O)(O)OC[C@H]32)ccn1 [Example 12, 4-[(1R,6S,8R,9S,15R,17R,18R)-17-(6-amino-9H-purin-9-yl)-18-fluoro-3,12-dihydroxy-3,12-dioxo-2,4,11,13,16-pentaoxa-3λ^5,12λ^5-diphosphatricyclo[13.3.0.0^6,9]octadecan-8-yl]pyridine-2-carboxamide]	–	–	0.35	31.2	> 100	> 100
Nc1ncnc2c1ncn2[C@@H]1C[C@@H]2COP(=O)(O)O[C@H]3[C@@H](F)[C@H](n4cnc5c4ncn4ccnc54)O[C@@H]3COP(=O)(O)OC[C@H]21 [Example 16, (1R,6S,8R,9R,15R,17R,18R)-8-(6-amino-9H-purin-9-yl)-18-fluoro-3,12-dihydroxy-17-{3H-imidazo[2,1-f]purin-3-yl}-2,4,11,13,16-pentaoxa-3λ^5,12λ^5-diphosphatricyclo[13.3.0.0^6,9]octa-decane-3,12-dione]	–	–	0.02	4.66	72.8	23.9
NC(=O)c1cc([C@@H]2C[C@@H]3COP(=O)(S)O[C@H]4[C@@H](F)[C@H](n5cnc6c5ncn5ccnc65)O[C@@H]4COP(=O)(S)OC[C@H]32)ccn1 (stereo partly drawn) [Example 19, 4-[(1R,6S,8R,9S,15R,17R,18R)-18-fluoro-17-{3H-imidazo[2,1-f]purin-3-yl}-3,12-dioxo-3,12-disulfanyl-2,4,11,13,16-pentaoxa-3λ^5,12λ^5-diphosphatricyclo[13.3.0.0^6,9]octa-decan-8-yl]pyridine-2-carboxamide]	–	–	0.01	0.01	2.38	0.97
